According to patent US10906909B2, “Treatment of cognitive and mood symptoms in neurodegenerative and neuropsychiatric disorders with ALPHA5-containing GABAA receptor agonists” (UWM Research Foundation, Inc., priority 2016, dated 2021):
“Also recorded” adds a separate entry of the source.

Legend:
[1] = test system: Female Swiss Webster mice; test: Rotarod sensorimotor / locomotor coordination; assay type: in vivo, mouse; details: 40 mg/kg oral gavage; 15 rpm, 3 min; 10, 30, 60 min after dosing
Experimental: Female Swiss Webster mice (10 weeks of age) from Charles River Laboratory, WIL, MA were used for the experiments. The animals were housed under specific pathogen-free conditions, under standard conditions of humidity, temperature and a controlled 12 h light and dark cycle and had free access to food and water. The sensorimotor rotarod test was carried out 10, 30 and 60 minutes after the injection. Mice were tested on a rotarod at 15 rpm for maximum 3 min and the time of fall was recorded. Falling before the 3 minutes period of testing assesses of locomotor coordination impairment induced by the compound.
Mice (N=10/group) received a single administration via oral gavage of test compound (40 mg/kg), diazepam (5 mg/kg), or vehicle (2% polyethylene glycol, 2.5% hydroxypropylmethyl cellulose solution).

[2] = Pharmacokinetics in mice (plasma, liver, brain); details: i.p. dosing at 3 mg/kg
[3] = Mouse liver microsome stability assay; assay type: in vitro ADME; details: 10 μM compound; for half-life at 10 μM: mouse, liver microsomes, read-out: Half-life (min) (MouseLM)
Experimental: (§1) Human and mouse liver microsomes were obtained fom BD Gentest.
(§2) Each evaluation included six independent assays carried out three at a time, on two different days
(§3) 2. For a total volume of Microsomal Assay Mixture (MAM) 390 μL, sufficient for seven time points, combine the following
(§4) 3. Sonicate MAM for 5 min and meanwhile thaw microsomes (20 mg/mL) (BD Gentest, Cat #452156) on ice.
(§5) 4. Aliquot 100 μL of ice cold ISTD into 7 separate 1.5 mL conical vials and label them the time points for 0, 10, 20, 40, 60, 90, and 120 min.
(§6) 5. Arrange the timer. Microsomes (Final concentration of 0.5 mg/mL) should be added to all time points except the zero time point.
(§7) 6. Add 50 μL of the MAM solution to the conical vial labelled as zero time point. Place the remaining MAM solution in the incubator (37° C.) for 5 min and initiate the reaction with addition of microsomes (8.8 μL) and record the time.
(§8) 7. At the end of each time interval remove 50 μL and add 100 μL to ISTD in conical vial, sonicate for 10 sec and spin down at 10,000 rpm for 5 minutes.
(§9) 8. Take 100 μL of supernatant and transfer to Spin-X HPLC filter tubes (Corning Incorporated, Cat #8169) and centrifuge at 13,000 rpm for 5 minutes and take 5 μL from this solution and dilute in 495 μL of LCMS grade methanol (Fischer scientific, CAS #67-56-1) in an 2 mL glass auto sampler vial (Microsolv, Cat #95025-WCV) 9. The samples are analyzed by LCMS-8040. (Shimadzu)
(§10) Calculation: From the peak area, calculate the following
(§11) The compounds are tested for the metabolic stability in the Human and Mouse Liver microsomes at 10 μM concentration.

[4] = test system: mice subjected to chronic restraint stress (CRS); test: Y-maze alternation task, chronic restraint stress (CRS) mice; assay type: in vivo, mouse; details: for effect on CRS-induced working memory deficit (percent alternation rate, Y-maze): 10 mg/kg i.p. 30 min before testing; for Alternation rate (%): Dose 10 mg/kg
Experimental: C57/B16 mice, males and females were ordered from Jackson Laboratories at 8 weeks old and were kept in normal housing conditions (12 h light ON cycle starting at 7 am/water and food ad libitum) for one week. During this week, animals were single housed and handled to reduce the anxiety-like response toward the experimenter. To induce a working memory deficit, mice were subjected to a chronic restraint stress protocol (CRS). They were placed in a 50 ml Falcon® tube, twice a day, for 1 hour during their diurnal cycle. The time of occurrence of the stress was randomized every day to avoid predictability. CRS was not applied on testing days. Y-maze test occurred 15 hours minimum after the last stressor.
Mice were first habituated to the Y-maze apparatus and distal cues during 2 consecutive days over a 10 min free exploration session (one session per day). The next day, animals performed a training session consisting in seven successive trials separated by a 30 s inter-trial interval (ITI); during this training session, mice were familiarized with the experimental procedure (opening and closing of the doors and confinement into the goal arms). For each trial, mice remained in the start-box for a 30 s ITI. Then, the door was opened and the mouse was allowed to enter freely one of the two goal arms; the chosen arm was closed and the choice was recorded. After a 30 s confinement period into the chosen arm, the mouse was removed and brought back to the start-box for a second trial identical to the first one and this procedure was repeated over the series of trials.
The same general procedure used in the training session was implemented 24 h later, except that the ITI was lengthened to 90 s. For this experiment, animals were acutely injected i.p. with vehicle or αPAM, 30 minutes before the beginning of the test. To dissociate memory deficits from an eventual progressive loss of motivation to alternate over the series, an 8th trial was added to the series which was separated from the 7th trial by a shorter ITI (5 s). All animals failing to alternate at the 8th trial were excluded. The mean alternation rate was calculated and was expressed in percentage (number of alternation done by the animal/total number of alternation possible×100)±SEM. The percentage of alternation during the entire task is considered as an index of working memory performance (50% of being a random alternation rate). Factorial ANOVA was applied to the data to reveal differences between groups. If the ANOVA was significant for group effect (p<0.05), Scheffe post-hoc analysis were conducted to identify which groups are different from each other.
(§12) All drugs were diluted in a vehicle solution containing 85% H2O, 14% propylene glycol (Sigma Aldrich) and 1% Tween 80 (Sigma Aldrich). Working solutions were prepared at a concentration of 10 mg/mL and administered i.p. adjusted to the body weight of each animal. Doses used were either 1, 5, 10 or 20 mg/kg. For all Y maze experiments, animals were acutely injected i.p. with vehicle or αPAM, 30 minutes before the beginning of the test.

[5] = Human liver microsome stability assay; assay type: in vitro ADME; details: 10 μM compound; for half-life at 10 μM: human, liver microsomes, read-out: Half-life (min) (HumanLM)
Experimental: as §1, §2, §3, §4, §5, §6, §7, §8, §9, §10, §11

HEK293 = test: Cytotoxicity assay (CellTiter-Glo), HEK293; assay type: cell-based, human; details: 48 hours incubation
Experimental: (§13) Human liver hepatocellular carcinoma (HEPG2) and human embryonic kidney 293 (HEK293) cell lines were purchased (ATCC) and cultured in 75 cm2 flasks (CellStar). Cells were grown in DMEM/High Glucose (Hyclone, #SH3024301) media to which non-essential amino acids (Hyclone, #SH30238.01), 10 mM HEPES (Hyclone, #SH302237.01), 5×106 units of penicillin and streptomycin (Hyclone, #SV30010), and 10% of heat inactivated fetal bovine serum (Gibco, #10082147) were added. Cells were harvested using 0.05% Trypsin (Hyclone, #SH3023601), washed with PBS, and dispensed into sterile white, optical bottom 384-well plates (NUNC, #142762). After three hours, small molecule solutions were transferred with a Tecan Freedom EVO liquid handling system equipped with a 100 nL pin tool (V&P Scientific). The controls (E)-10-(bromotriphenylphosphoranyl)decyl 4-(4-(tert-butyl)phenyl)-4-oxobut-2-enoate (400 μM in DMSO, positive control) and DMSO (negative control). The cells were incubated for 48 hours followed by the addition of CellTiter-Glo™, a luminescence-based cell viability assay (Promega, Madison, Wis.). All luminescence readings were performed on a Tecan Infinite M1000 plate reader. The assay was carried out in quadruplet with three independent runs. The data was normalized to the controls and analyzed by nonlinear regression (GraphPad Prism).

HEPG2 = test: Cytotoxicity assay (CellTiter-Glo), HEPG2; assay type: cell-based, human; details: 48 hours incubation
Experimental: as §13

C57B1/6 male mice = test: Forced swim test (FST); assay type: in vivo, mouse; details: 10 mg/kg i.p. 24, 20, 1 hour before testing; vs vehicle
Experimental: C57B1/6 male mice were ordered from Jackson Laboratories at 8 weeks-old and were group housed (4-5 mice/cage) under normal housing conditions (12 h light ON cycle starting at 7 am/water and food ad libitum) for one week. During this week, animals were handled in order to habituate them to the experimenter and to reduce their anxiety-like response during behavioral testing.
as §12, with “20” for “10”, “5 or” for “5,”, “10” for “10 or 20”, “FST” for “Y maze”, “were” for “were acutely”, “αPAM.” for “αPAM, 30 minutes before the beginning of the test.”
Mice were tested in the forced swim test (FST) (measure of despair-like behavior used for the assessment of antidepressant efficacy). Animals were sub-chronically injected three times (24, 20 and 1 hour before testing) as per standard methods in the field for testing potential antidepressant compounds.
One hour after the last injection, mice were placed in an inescapable transparent tank filled with water (25 cm, 25-26° C.), where they are unable to touch the bottom and unable to jump out of the tank. Animal were recorded for a period of 6 minutes and a manual count of the immobile time in the tank was measured for the 2-6 minutes period by an experimenter blinded to the mouse treatment history. Immobility is defined as the minimum amount of movement to stay afloat. Compounds that reduced immobility in the FST are considered to have potential antidepressant actions.

C#Cc1ccc2c(c1)C(c1ccccc1F)=N[C@@H](C)c1c(-c3nc(C)no3)ncn1-2 [GL-I-65, (S)-5-(8-ethynyl-6-(2-fluorophenyl)-4-methyl-4H-benzo[f]imidazo[1,5-a][1,4]diazepin-3-yl)-3-methyl-1,2,4-oxadiazole]
sensorimotor impairment on rotarod (time of fall) [1]: no sensorimotor impairment | molar concentration range reached in mouse brain tissue [2]: moderate to high submicromolar concentrations | Half-life (min) (MouseLM) [3]: 443 ± 67 min | % left after 2 hr. (MouseLM) [3]: 81.0 ± 0.4% | effect on CRS-induced working memory deficit (percent alternation rate, Y-maze) [4]: significant reversal of CRS-induced impairment in working memory; also recorded: increase in alternation rate | Half-life (min) (HumanLM) [5]: 866 ± 213 min | % left after 2 hr. (Human LM) [5]: 86.4 ± 0.3%

C#Cc1ccc2c(c1)C(c1ccccn1)=N[C@H](C)c1c(C(=O)NC)ncn1-2 [GL-II-31, (R)-8-ethynyl-N,4-dimethyl-6-(pyridin-2-yl)-4H-benzo[f]imidazo[1,5-a][1,4]diazepine-3-carboxamide]
sensorimotor impairment on rotarod (time of fall) [1]: no sensorimotor impairment | HEK293 LD50 (HEK293): >400 µM | molar concentration range reached in mouse brain tissue [2]: moderate to high submicromolar concentrations | half-life at 10 μM [3]: 1840 ± 590 min | Alternation rate (%) [4]: 56.6% | half-life at 10 μM [5]: 1870 ± 765 min | HEPG2 LD50 (HEPG2): >400 µM

C#Cc1ccc2c(c1)C(c1ccccn1)=N[C@H](C)c1c(-c3nc(C)no3)ncn1-2 [GL-II-33, (R)-5-(8-ethynyl-4-methyl-6-(pyridin-2-yl)-4H-benzo[f]imidazo[1,5-a][1,4]diazepin-3-yl)-3-methyl-1,2,4-oxadiazole]
sensorimotor impairment on rotarod (time of fall) [1]: no sensorimotor impairment | HEK293 LD50 (HEK293): >400 µM | molar concentration range reached in mouse brain tissue [2]: moderate to high submicromolar concentrations | % left after 2 hr. (MouseLM) [3]: 82.0 ± 0.3% | half-life at 10 μM [3]: 500 ± 66 min | effect on CRS-induced working memory deficit (percent alternation rate, Y-maze) [4]: a trend in the reversal of CRS-induced impairment in working memory; also recorded: a trend was detected | half-life at 10 μM [5]: 2590 ± 1110 min | HEPG2 LD50 (HEPG2): >400 µM

Cc1noc(-c2ncn3c2[C@@H](C)N=C(c2ccccn2)c2cc(Br)ccc2-3)n1 [GL-II-54, (R)-5-(8-bromo-4-methyl-6-(pyridin-2-yl)-4H-benzo[f]imidazo[1,5-a][1,4]diazepin-3-yl)-3-methyl-1,2,4-oxadiazole]
time spent immobile in the FST (C57B1/6 male mice): significant decrease in immobility time; also recorded: significant antidepressant-like action | sensorimotor impairment on rotarod (time of fall) [1]: no sensorimotor impairment | HEK293 LD50 (HEK293): >400 µM | molar concentration range reached in mouse brain tissue [2]: high submicromolar to low micromolar values | half-life at 10 μM [3]: 2330 ± 1110 min | Alternation rate (%) [4]: 66.66% | % left after 2 hr. (Human LM) [5]: 76.0 ± 0.2% | half-life at 10 μM [5]: 404 ± 61 min | HEPG2 LD50 (HEPG2): >400 µM

C#Cc1ccc2c(c1)C(c1ccccc1F)=NCc1c(-c3nc(C)no3)ncn1-2 [GL-III-23, 5-(8-ethynyl-6-(2-fluorophenyl)-4H-benzo[f]imidazo[1,5-a][1,4]diazepin-3-yl)-3-methyl-1,2,4-oxadiazole]
HEK293 LD50 (HEK293): >100 µM | molar concentration range reached in mouse brain tissue [2]: micromolar concentrations | half-life at 10 μM [3]: 1320 ± 316 min | Alternation rate (%) [4]: 56.6% | % left after 2 hr. (Human LM) [5]: 82.0 ± 0.3% | half-life at 10 μM [5]: 504 ± 77 min | HEPG2 LD50 (HEPG2): >100 µM
